Test results as given in patent US7932396B2, “2-pyridinylcycloalkylbenzamide derivatives and their use as fungicides” (Bayer Cropscience AG, priority 2005, dated 2011).

Key:
[1] = test system: Peronospora parasitica; experiment: Efficacy against Peronospora parasitica; format: in vivo; settings: 330 ppm; comparison compound of WO 01/11965
[2] = test system: Alternaria brassicae; experiment: In vivo test on Alternaria brassicae (leaf spot of crucifers) on radish plants; settings: 330 ppm; comparison compounds of WO 01/11965
Method: (§1) The active ingredients tested are prepared by homogenization in a mixture of DMSO (dimethylsulfoxid)/acetone/tween/water. This suspension is then diluted with water to obtain the desired active material concentration.
Radish plants (Pernot variety) in starter cups, sown on a 50/50 peat soil-pozzolana substrate and grown at 18-20° C., are treated at the cotyledon stage by spraying with the aqueous suspension described above.
Plants, used as controls, are treated with an aqueous solution not containing the active material.
After 24 hours, the plants are contaminated by spraying them with an aqueous suspension of Alternaria brassicae spores (40,000 spores per cm^3). The spores are collected from a 12-13-day-old culture.
The contaminated radish plants are incubated for 6-7 days at about 18° C., under a humid atmosphere.
Grading is carried out 6 to 7 days after the contamination, in comparison with the control plants.

[3] = test system: Botrytis cinerea; experiment: In vivo test on Botrytis cinerea (gherkin grey mould) on gherkin plants; settings: 330 ppm; comparison compounds of WO 01/11965
Method: as §1
Gherkin plants (Petit Vert de Paris variety) in starter cups, sown on a 50/50 peat soil-pozzolana substrate and grown at 18-20° C., are treated at the cotyledon Z11 stage by spraying with the aqueous suspension described above. Plants, used as controls, are treated with an aqueous solution not containing the active material.
After 24 hours, the plants are contaminated by depositing drops of an aqueous suspension of Botrytis cinerea spores (150,000 spores per ml) on upper surface of the leaves. The spores are collected from a 15-day-old culture and are suspended in a nutrient solution composed of: • 20 g/L of gelatin • 50 g/L of cane sugar • 2 g/L of NH4NO3 • 1 g/L of KH2PO4
The contaminated gherkin plants are settled for 5/7 days in a climatic room at 15-11° C. (day/night) and at 80% relative humidity.
Grading is carried out 5/7 days after the contamination, in comparison with the control plants.

Row | SMILES | efficacy against Peronospora parasitica [1] | effectiveness on Alternaria brassicae [2] | effectiveness on Botrytis cinerea [3]
1 | O=C(Cc1cccs1)NCc1ncc(C(F)(F)F)cc1Cl [compound 101, N-{[3-chloro-5-(trifluoromethyl)-2-pyridinyl]methyl}-5-thienylacetamide] | no efficacy | poor efficacy | no efficacy
2 | CCNC(=O)C(Cc1ncc(C(F)(F)F)cc1Cl)NC(=O)c1ccccc1 (stereo not drawn) [compound 304, N-{1-ethylcarbamoyl-2-[3-chloro-5-(trifluoromethyl)-2-pyridinyl]-ethyl}-benzamide] | – | – | zero effectiveness
3 | CCNC(=O)C(Cc1ncc(C(F)(F)F)cc1Cl)NC(=O)c1ccc(Cl)cc1 (stereo not drawn) [compound 306, N-{1-ethylcarbamoyl-2-[3-chloro-5-(trifluoromethyl)-2-pyridinyl]ethyl}-4-chlorobenzamide] | – | – | zero effectiveness
4 | CCNC(=O)C(Cc1ncc(C(F)(F)F)cc1Cl)NC(=O)c1cccc([N+](=O)[O-])c1 (stereo not drawn) [compound 307, N-{1-ethylcarbamoyl-2-[3-chloro-5-(trifluoromethyl)-2-pyridinyl]ethyl}-3-nitrobenzamide] | – | poor effectiveness | zero effectiveness
5 | CCNC(=O)C(Cc1ncc(C(F)(F)F)cc1Cl)NC(=O)c1ccccc1Br (stereo not drawn) [compound 310, N-{1-ethylcarbamoyl-2-[3-chloro-5-(trifluoromethyl)-2-pyridinyl]ethyl}-2-bromobenzamide] | – | – | zero effectiveness
6 | CNC(=O)C(Cc1ncc(C(F)(F)F)cc1Cl)NC(=O)c1ccccc1 (stereo not drawn) [compound 314, N-{1-methylcarbamoyl-2-[3-chloro-5-(trifluoromethyl)-2-pyridinyl]ethyl}-benzamide] | – | – | zero effectiveness
7 | CNC(=O)C(Cc1ncc(C(F)(F)F)cc1Cl)NC(=O)c1ccc(OC)cc1 (stereo not drawn) [compound 315, N-{1-methylcarbamoyl-2-[3-chloro-5-(trifluoromethyl)-2-pyridinyl]ethyl}-4-methoxybenzamide] | – | – | zero effectiveness
8 | CNC(=O)C(Cc1ncc(C(F)(F)F)cc1Cl)NC(=O)c1ccc(-c2ccccc2)cc1 (stereo not drawn) [compound 316, N-{1-methylcarbamoyl-2-[3-chloro-5-(trifluoromethyl)-2-pyridinyl]-ethyl}-4-phenylbenzamide] | – | poor effectiveness | zero effectiveness
